# Reference: patent US9642829B2, “Antifungal compound and uses thereof” (The University of Hong Kong, priority 2012, dated 2017)
# What was measured:
# [1] = test system: C. albicans; test: Dose-dependent assay of MIC/MFC at different cell densities; type: cell-based, Candida albicans; design: unit not given here
# Procedure: (§1) Antifungal activity of the small molecules was evaluated using USA standards, Clinical and Laboratory Standards Institute (CLSI) criteria. In brief, inocula from 24 h Candida cultures on Sabourauds's dextore agar were standardized to a turbidity equivalent of 0.5 McFarland standards at 520 nm with a spectrophotometer. The suspensions were further diluted in Rosewell Park Memorial Institute (RPMI) 1640 medium (Life technologies, New York, USA) to yield an inoculum concentration of approximately 0.5 1×10^3 to 2.5 1×10^3 cells/ml. Minimum inhibitory concentration (MIC) and minimum fungicidal concentration (MFC) assay was performed in 96-well plates (Iwaki, Tokyo, Japan) and each of the Candida species was exposed to a double dilution of SM21. Amphotericin B was used as a positive control. All the experiments were preformed three occasions with duplicates for all isolates. The plates were incubated at 35° C. for 48 h to evaluate MIC. In the case of Cryotococcus neoformans, reading were taken after 72 h. Aforementioned assay was performed for C. albicans ATCC 90028, C. albicans SC5314 and 10 C. albicans clinical isolates. Moreover, MIC/MFC determination was carried out for other fungal species such as C. glabrata, C. krusei, C. tropicalis, C. parapsilosis, C. neoformans, Aspergillus fumigates and Penicillium marneffei. […] Next using dose-dependent assay we tested that MIC/MFC of SM21 from 10^3 cells/ml to 10^7 cells/ml of C. albicans (Table 2). Each of the foregoing experiment was repeated on three different occasions.
# [2] = test system: C. albicans biofilms; test: Mono species Candida biofilm MIC, XTT assay; type: cell-based, Candida albicans; details: for Biofilm MIC90: 24 h C. albicans biofilms, 24 h drug exposure, XTT; for Minimum inhibitory concentration of 48 h Candida biofilms: 48 h C. albicans biofilms
# Procedure: (§2) For instance, we have previously shown the resistance of Candida biofilms against amphotericin and caspofungin. Therefore, next using standard biofilm assays we have established in our laboratory, we examined the effect of SM21 against Candida biofilms. In brief, Candida cells were grown in SDA medium at 37° C. for 18 h. Then a loopful of the yeast was inoculated into the yeast nitrogen base (YNB; Difco) medium supplemented with 50 mM glucose in a rotary shaker at 75 rpm. After overnight broth culture, the yeasts were harvested in the late exponential growth phase and washed twice with 20 ml of phosphate buffer saline (PBS; pH 7.2. 0.1 M) prior to use in the biofilm studies. Candida biofilms were developed according to a previously published protocol. In brief, washed yeast cells were resuspended in YNB supplemented with 100 mM glucose and adjusted to an optical density of 0.38 at 520 nm (1×10^7 cells/ml). The standard cell suspension was used immediately to develop biofilms on commercially available presterilized, polystyrene, 96-well plate (IWAKI, Tokyo, Japan). At first, 100 μl of standardized cell suspension (1×10^7 cells/ml) was pipetted into each well of a microtiter plate and incubated for 1.5 h at 37° C. in a shaker at 75 rpm to permit yeast adherence to the well surface (adherence phase). For controls, a well of each microtiter plate was handled in an identical fashion except that no Candida suspension was added. Following the adhesion phase, the cell suspensions were aspirated, and each well washed with 100 μl of PBS to remove loosely adherent cells. 200 μl of YNB with 100 mM glucose were then pipetted into each of the washed wells and the plates incubated at 37° C. in a shaker at 75 rpm for 24 or 48 h. After biofilm growth phase microscopic examination of the cultures were performed to rule out contamination. Then, the suspending medium was aspirated and biofilms were washed with 100 μl PBS to remove the nonadherent cells. The stock solutions were diluted twofold with RPMI 1640 supplemented with 2% glucose to obtain SM21 concentration from 100 to 0.2 μg/ml drug concentrations. In parallel, other antifungal agents such as caspofungin (100 to 0.1 μg/ml) and amphotericin B (240 μg/ml to 0.225 μg/ml) was also prepared as describe above. A total of 100 μl of drug solution was added to the microtiter plate containing Candida biofilms. Biofilms were then incubated at 37° C. for 24 h with the antifungals and afterwards metabolic activity of fungal cells was determined by the XTT [2,3-bis(2-methoxy-4-nitro-5-sulfophenyl)-2H-tetrazolium-5-carboxanilide sodium salt] assay (17, 28). Candida biofilm MIC90 was defined as the lowest drug concentration with 90% reduction in opacity compared with the drug free control. Each experiment was repeated three times with four replicates.
# [3] = test system: C. albicans SC5314 and C. albicans ATCC 90028; test: Antifungal activity compared with caspofungin and amphotericin B (FIG. 2, CLSI M44-A disc diffusion); type: cell-based, Candida albicans
# Text: (§3) Oral Biosciences laboratory has one of the largest collections of fungal isolates, particular that of Candida species in the world. In our previous studies, we have found multidrug resistant clinical isolates of Candida species against existing antifungals. In particular, some of these strains are resistant to best antifungal agents to date such as caspofungin, amphotericin B and fluconazole. Therefore, we performed antifungal susceptibility testing for SM21 against these drug resistant Candida isolates suing CLSI M27A brothmicrodultion assay and CLSI M44-A disc diffusion assay.
# [4] = test system: C. krusei biofilms; test: Mono species Candida biofilm MIC, XTT assay; type: cell-based; details: 48 h C. krusei biofilms
# Procedure: as §2
# [5] = test system: C. glabrata biofilms; test: Mono species Candida biofilm MIC, XTT assay; type: cell-based; details: 48 h C. glabrata biofilms
# Procedure: as §2
# [6] = test system: C. tropicalis; test: Antifungal susceptibility (MIC/MFC), CLSI criteria; type: cell-based, Candida tropicalis; details: C. tropicalis ATCC; 0.5 McFarland inoculum (10^6 cells/ml)
# Procedure: (§4) Antifungal activity of the small molecules was evaluated using USA standards, Clinical and Laboratory Standards Institute (CLSI) criteria. In brief, inocula from 24 h Candida cultures on Sabourauds's dextore agar were standardized to a turbidity equivalent of 0.5 McFarland standards at 520 nm with a spectrophotometer. The suspensions were further diluted in Rosewell Park Memorial Institute (RPMI) 1640 medium (Life technologies, New York, USA) to yield an inoculum concentration of approximately 0.5 1×10^3 to 2.5 1×10^3 cells/ml. Minimum inhibitory concentration (MIC) and minimum fungicidal concentration (MFC) assay was performed in 96-well plates (Iwaki, Tokyo, Japan) and each of the Candida species was exposed to a double dilution of SM21. Amphotericin B was used as a positive control. All the experiments were preformed three occasions with duplicates for all isolates. The plates were incubated at 35° C. for 48 h to evaluate MIC. In the case of Cryotococcus neoformans, reading were taken after 72 h. Aforementioned assay was performed for C. albicans ATCC 90028, C. albicans SC5314 and 10 C. albicans clinical isolates. Moreover, MIC/MFC determination was carried out for other fungal species such as C. glabrata, C. krusei, C. tropicalis, C. parapsilosis, C. neoformans, Aspergillus fumigates and Penicillium marneffei. […]
# [7] = test system: C. glabrata; test: Antifungal susceptibility (MIC/MFC), CLSI criteria; type: cell-based, Candida glabrata; details: C. glabrata ATCC; 0.5 McFarland inoculum (10^6 cells/ml)
# Procedure: as §4
# [8] = test system: Aspergillus fumigatus; test: Antifungal susceptibility (MIC/MFC), CLSI criteria; type: cell-based; details: 0.5 McFarland inoculum (10^6 cells/ml)
# Procedure: as §1
# [9] = test system: Penicillium marneffei; test: Antifungal susceptibility (MIC/MFC), CLSI criteria; type: cell-based; details: 0.5 McFarland inoculum (10^6 cells/ml)
# Procedure: as §1
# [10] = test system: C. krusei; test: Antifungal susceptibility (MIC/MFC), CLSI criteria; type: cell-based, Candida krusei; details: C. krusei ATCC; 0.5 McFarland inoculum (10^6 cells/ml)
# Procedure: as §4
# [11] = test system: resistant isolate T-1549; test: Antifungal activity compared with caspofungin and amphotericin B (FIG. 2, CLSI M44-A disc diffusion); type: cell-based, C. guilliermondii; details: resistant isolate T-1549 (FIG. 2C)
# Text: as §3
# [12] = test system: C. neoformans; test: Antifungal susceptibility (MIC/MFC), CLSI criteria, reading after 72 h; type: cell-based, Cryptococcus neoformans; details: 0.5 McFarland inoculum (10^6 cells/ml)
# Procedure: as §4
# [13] = test system: C. albicans; test: Antifungal susceptibility (MIC/MFC), CLSI criteria, 96-well double dilution; type: cell-based, Candida albicans; details: 0.5 McFarland inoculum (10^6 cells/ml)
# Procedure: as §1
# [14] = test system: C. parapsilosis; test: Antifungal susceptibility (MIC/MFC), CLSI criteria; type: cell-based, Candida parapsilosis; details: C. parapsilosis ATCC; 0.5 McFarland inoculum (10^6 cells/ml)
# Procedure: as §4
# [15] = C. albicans ATCC 90028, CLSI quality control strain (FIG. 2B)
smiles,measurement,setting,value
"C[C@@H]1[C@H](O)[C@@H](C)/C=C/C=C/C=C/C=C/C=C/C=C/C=C/[C@H](O[C@@H]2O[C@H](C)[C@@H](O)[C@H](N)[C@@H]2O)C[C@@H]2O[C@](O)(C[C@@H](O)C[C@@H](O)[C@H](O)CC[C@@H](O)C[C@@H](O)CC(=O)O[C@H]1C)C[C@H](O)[C@H]2C(=O)O [Amphotericin B, reference compound]",MIC/MFC,[1]; C. albicans 10^4 cells/ml,0.2
same,MIC/MFC,[1]; C. albicans 10^5 cells/ml,0.2
same,MIC/MFC,[1]; C. albicans 10^6 cells/ml,0.2
same,MIC/MFC,[1]; C. albicans 10^7 cells/ml,0.8
same,Biofilm MIC90,[2],32 µg/mL
same,Minimum inhibitory concentration of 48 h Candida biofilms,[2],32 µg/mL
same,Susceptibility of the strain to the agent,[3]; [15],susceptible
same,Susceptibility of the strain to the agent,[3]; C. albicans SC5314 (FIG. 2A),susceptible
same,Minimum inhibitory concentration of 48 h Candida biofilms,[4],32 µg/mL
same,Minimum inhibitory concentration of 48 h Candida biofilms,[5],16 µg/mL
same,Susceptibility (MIC90),[6],0.8 µg/mL
same,Susceptibility (MIC90),[7],0.4 µg/mL
same,Susceptibility (MIC90),[8],1.56 µg/mL
same,Susceptibility (MIC90),[9],0.05 µg/mL
same,Susceptibility (MIC90),[10],0.4 µg/mL
same,Effectiveness against resistant isolate,[11],only SM21 was effective
same,Susceptibility (MIC90),[12],0.4 µg/mL
same,Susceptibility (MIC90),[13]; C. albicans ATCC 90028,0.2 µg/mL
same,Susceptibility (MIC90),[13]; C. albicans CL1,0.2 µg/mL
same,Susceptibility (MIC90),[13]; C. albicans CL2,0.4 µg/mL
same,Susceptibility (MIC90),[13]; C. albicans CL3,0.4 µg/mL
same,Susceptibility (MIC90),[13]; C. albicans CL4,0.2 µg/mL
same,Susceptibility (MIC90),[13]; C. albicans CL5,0.2 µg/mL
same,Susceptibility (MIC90),[13]; C. albicans CL6,0.2 µg/mL
same,Susceptibility (MIC90),[13]; C. albicans CL7,0.2 µg/mL
same,Susceptibility (MIC90),[13]; C. albicans CL8,0.4 µg/mL
same,Susceptibility (MIC90),[13]; C. albicans CL9,0.4 µg/mL
same,Susceptibility (MIC90),[13]; C. albicans CL10,0.2 µg/mL
same,Susceptibility (MIC90),[13]; C. albicans SC5314,0.2 µg/mL
same,Susceptibility (MIC90),[14],0.8 µg/mL
Nc1nc(=O)[nH]cc1F [5-fluorocytosine],Minimum inhibitory concentration of 48 h Candida biofilms,[2],420 µg/mL
same,Minimum inhibitory concentration of 48 h Candida biofilms,[4],250 µg/mL
same,Minimum inhibitory concentration of 48 h Candida biofilms,[5],420 µg/mL
CC(=O)N1CCN(c2ccc(OCC3COC(Cn4ccnc4)(c4ccc(Cl)cc4Cl)O3)cc2)CC1 (stereo not shown) [Ketoconazole],Minimum inhibitory concentration of 48 h Candida biofilms,[2],64 µg/mL
same,Minimum inhibitory concentration of 48 h Candida biofilms,[4],64 µg/mL
same,Minimum inhibitory concentration of 48 h Candida biofilms,[5],64 µg/mL
CC[C@H](C)C[C@H](C)CCCCCCCCC(=O)N[C@H]1C[C@@H](O)[C@@H](NCCN)NC(=O)[C@@H]2[C@@H](O)CCN2C(=O)[C@H]([C@H](O)CCN)NC(=O)[C@H]([C@H](O)[C@@H](O)c2ccc(O)cc2)NC(=O)[C@@H]2C[C@@H](O)CN2C(=O)[C@H]([C@@H](C)O)NC1=O [Caspofungin],Biofilm MIC90,[2],50 µg/mL
same,Minimum inhibitory concentration of 48 h Candida biofilms,[2],100 µg/mL
same,Susceptibility of the strain to the agent,[3]; [15],susceptible
same,Susceptibility of the strain to the agent,[3]; C. albicans SC5314 (FIG. 2A),susceptible
same,Minimum inhibitory concentration of 48 h Candida biofilms,[4],100 µg/mL
same,Minimum inhibitory concentration of 48 h Candida biofilms,[5],100 µg/mL
same,Effectiveness against resistant isolate,[11],only SM21 was effective
